Measurements taken from patent publication US7855200B2, “Method for treatment of gastric ulcers and ulcers induced by aspirin” (Council of Scientific and Industrial Research, priority 2006, dated 2010).

Legend:
Format in all cases: in vivo, albino rats
[1] = system: acetyl salicylic acid induced gastric lesions; assay: Acetyl salicylic acid (aspirin) induced gastric ulcer; design: Ulcer index Mean(SE): scale not given here; conditions: rats, 25 mg/kg per orally daily for five days, aspirin 200 mg/kg; for inhibition at 25 mg/kg: Rattus norvegicus, po, 120 h
Description: Stress induced gastric ulceration The commercially available drug ranitidine (sigma), Omeprazole (sigma) and sucralfate (Merck) were used as reference standard in experimental models. The Tween-80 (SD fine chemicals) was used as vehicle for the administration of the drug, which is used as control. Antiulcer activity of the compounds under taken was studied. The animals were divided into 20 groups of 6 animals each. Group 1 received the vehicle Tween 80 (1%, 1 ml) which served as the control. Group 2 received ranitidine at a dose of 50-mg/kg body weight, which served as standard for comparison. Group 3 to 20 at a dose of 25 mg/kg body weight. Rats were administered per orally with a daily dose of the compounds and the drug ranitidine for a period of five days and then fasted for 24 hours. The […] acetyl salicylic acid (aspirin) at a dose of 200 mg/kg body weight was administered as a suspension in tween-80 (1%), 30 min after the drug administration each day. All drugs were administered orally on the 6th day after the last administration of the drugs and the ulcer inducing agent aspirin, the rats were killed by cervical dislocation and their stomach were opened along the greater curvature and washed with luke warm saline and examined under a dissecting microscope. The ulcer index was calculated for each stomach. […] The antiulcer activity of the compounds was studied. The animals were divided into 19 groups of 6 animals each. Group 1 received the vehicle Tween 80 (1%, 1 ml) which served as the control. Group 2 received ranitidine at a dose of 50-mg/kg-body weight, which served as standard for comparison. […] Rats were administered per orally with a daily dose of the compounds and the drug ranitidine to respective groups for a period of five days and then fasted for 24 hours. The […] acetyl salicylic acid (aspirin) at a dose of 200 mg/kg body weight was administered as a suspension in tween-80 (1%), 30 min after the drug administration each day. All drugs were administered orally on ht […] day after the last administration of the drugs and the ulcer inducing agent aspirin, the rats were killed by cervical dislocation and their stomach were opened along the greater curvature and washed with luke warm saline and examined under a dissecting microscope.

[2] = system: gastric ulceration in cold restraint rats; assay: Cold restraint (stress) induced ulcers; design: Ulcer index Mean(SE): scale not given here; conditions: rats, 25 mg/kg per orally, 4° C. for 2 hours; for inhibition at 25 mg/kg: Rattus norvegicus, po
From the text: (§1) The compounds taken under study for antigastric ulcer screening by four different models were selected using experimental albino rats: • 1. Aspirin induced gastric ulceration • 2. Pylorus ligated gastric ulceration • 3. Ethanol induced gastric ulceration • 4. Stress induced gastric ulceration
(§2) The commercially available drug ranitidine (sigma), Omeprazole (sigma) and sucralfate (Merck) were used as reference standard in experimental models. The Tween-80 (SD fine chemicals) was used as vehicle for the administration of the drug, which is used as control.
(§3) The antiulcer activity of the compounds was studied. The animals were divided into 21 groups of 7 animals each. Group 1 received the vehicle Tween 80 (1%, 1 ml) which served as the control. Group 2 received ranitidine at a dose of 50-mg/kg body weight, which served as standard for comparison. Group 3 to 21 at a dose of 25 mg/kg body weight. Animals were deprived of food 48 hours before the experiment. The water was allowed for free access. Rats were administered per orally with compounds and the drug ranitidine. The water was removed 1 hour before restraint and exposed to a temperature of 4° C. for 2 hours. Two hours after stress, the animals were sacrificed. The stressed animals were opened along the greater curvature and the severity of gastric ulcer was assessed in terms of mean ulcer index. 2.
as §3, with “8” for “21”, “6” for “7”, “50, 25, 15, 10 and 5” for “25”, “weight respectively.” for “weight.”, “index.” for “index. 2.”

[3] = system: ethanol induced gastric ulcers; assay: Ethanol induced ulcers; conditions: rats, 25 mg/kg, ethanol challenge; for inhibition at 25 mg/kg: Rattus norvegicus; for Acidity Total mEg / Gastric content / pH: 4 hours after pylorus ligation
Description: Stress induced gastric ulceration The commercially available drug ranitidine (sigma), Omeprazole (sigma) and sucralfate (Merck) were used as reference standard in experimental models. The Tween-80 (SD fine chemicals) was used as vehicle for the administration of the drug, which is used as control. The animals were divided into 22 groups of 6 animals each. Animals were deprived of food for 48 hours but had free access to water. Group 1 received the vehicle Tween 80 (1%, 1 ml) which served as the control. Group 2 received ranitidine at a dose of 50-mg/kg-body weight, which served as standard for comparison. Group 3 to received Omeprazole at a dose of 30-mg/kg body weight, which served as standard for comparison. Group 4 received sucralfate at a dose of 400-mg/kg body weight, which served as standard for comparison. Group 5 to 22 received at a dose of 25 mg/kg body weight. Lesions were induced 1 hour after ethanol challenge animals. The stomach was ligated at the pylorus under ether anesthesia. 4 hours after pylorus ligation, the animals were sacrificed and the contents drained and centrifuges at 5000 rpm for 10 minutes. Aliquots of supernatant were used for determination of total acid by titrating with 0.01N NaOH using topfers reagent and phenolphthalein indicators. […] The animals were divided into 9 groups of 6 animals each. Animals were deprived of food for 48 hours but had free access to water. Group 1 received the vehicle Tween 80 (1%, 1 ml) which served as the control. Group 2 received ranitidine at a dose of 50-mg/kg-body weight, which served as standard for comparison. Group 3 to received Omeprazole at a dose of 30-mg/kg body weight, which served as standard for comparison. Group 4 received sucralfate at a dose of 400-mg/kg body weight, which served as standard for comparison. […] Lesions were induced 1 hour after ethanol challenge animals. The stomach was ligated at the pylorus under ether anesthesia. 4 hours after pylorus ligation, the animals were sacrificed and the contents drained and centrifuges at 5000 rpm for 10 minutes. Aliquots of supernatant were used for determination of total acid by titrating with 0.01N NaOH using topfers reagent and phenolphthalein indicators.

[4] = system: Pylorus ligated rats; assay: Pylorus ligated ulcers; conditions: 25 mg/kg, 4 hours after pylorus ligation; for inhibition at 25 mg/kg: Rattus norvegicus
From the text: as §1, §2
The animals were divided into 19 groups of 6 animals each. Animals were deprived of food for 48 hours but had free access to water. Group 1 received the vehicle Tween 80 (1%, 1 ml) which served as the control. Group 2 received ranitidine at a dose of 50-mg/kg-body weight, which served as standard for comparison. […] After one hour of administration of drug the stomach was ligated at the pylorus under ether anesthesia. 4 hours after pylorus ligation, the animals were sacrificed and the contents drained and centrifuges at 5000 rpm for 10 minutes. Aliquots of supernatant were used for determination of total acid by titrating with 0.01N NaOH using topfers reagent and phenolphthalein indicators. 4.
The animals were divided into 7 groups of 6 animals each. Animals were deprived of food for 48 hours but had free access to water. Group 1 received the vehicle Tween 80 (1%, 1 ml) which served as the control. Group 2 received ranitidine at a dose of 50-mg/kg-body weight, which served as standard for comparison. Group 3 to 7 received at a dose of 50, 25, 15, 10 and 5 mg/kg body weight respectively. After one hour of administration of drug the stomach was ligated at the pylorus under ether anesthesia. 4 hours after pylorus ligation, the animals were sacrificed and the contents drained and centrifuges at 5000 rpm for 10 minutes. Aliquots of supernatant were used for determination of total acid by titrating with 0.01N NaOH using topfers reagent and phenolphthalein indicators.

| Structure (SMILES) | inhibition at 25 mg/kg [1] [%] | Ulcer index Mean(SE) [1] | inhibition at 25 mg/kg [2] [%] | Ulcer index Mean(SE) [2] | inhibition at 25 mg/kg [3] [%] | Ulcer index Mean(SE) [3] | Acidity Total mEg [3] | Gastric content [3] | pH [3] | Acidity Total mEg [4] | Gastric content [4] | Ulcer index Mean(SE) [4] | pH [4] | inhibition at 25 mg/kg [4] [%] | Inhibition % [1] [%] | Inhibition % [2] [%] | Inhibition % [3] [%] | Inhibition % [4] [%] |
| --- | --- | --- | --- | --- | --- | --- | --- | --- | --- | --- | --- | --- | --- | --- | --- | --- | --- | --- |
| CN(C)CCCOc1cc(O)c2c(=O)cc(-c3ccccc3)oc2c1 [CHN-2, 7-(3-Dimethylamino-propoxy)-5-hydroxy-2-phenyl chromen-4-one] | 55.7 | 20.00 | 56.1 | 17.85 | 42.5 | 38.33 (±3.07) | 28.10 (±0.48) mEg | 3.2 (±0.42) | 5.14 (±0.36) | 37.18 (±4.20) m Eg | 1.80 (±0.46) | 20.83 (±2.00) | 4.25 (±0.09) | 58.4 |  |  |  |  |
| O=c1cc(-c2ccccc2)oc2cc(OCCCN3CCCCC3)cc(O)c12 [CPP-2, 5-Hydroxy-2-phenyl-7-(3-piperidin-1-yl-propoxy)-chromen-4-one] | 66.8 | 14.99 | 61.4 | 15.71 | 36.2 | 28.83 (±2.71) | 44.60 (±4.12) mEg | 3.2 (±0.62) | 3.33 (±0.16) | 29.06 (±2.20) m Eg | 2.60 (±0.24) | 15.80 (±2.71) | 3.25 (±0.11) | 68.5 |  |  |  |  |
| O=c1cc(-c2ccccc2)oc2cc(O)cc(O)c12 [Chrysin, 5,7-dihydroxy-2-phenyl-chromen-4-one] | 46.7 | 24.06 | 42.7 | 23.03 | 9.01 | 60.66 (±2.88) | 48.00 (±2.20) mEg | 4.20 (±0.02) | 3.20 (±0.40) | 56.00 (±0.82) m Eg | 1.85 (±0.82) | 37.21 (±0.26) | 4.00 (±0.40) | 25.7 |  |  |  |  |
| COc1cc(O)c2c(=O)cc(-c3ccccc3)oc2c1 [Methoxy chrysin, 5-hydroxy-7-methoxy-2-phenyl-chromen-4-one] | 11.3 | 40.00 | 8.77 | 27.14 | 15 | 46.66 (±1.66) | 49.20 (±4.12) mEg | 3.9 (±0.40) | 2.91 (±0.15) | 47.20 (±2.40) m Eg | 2.20 (±0.44) | 48.80 (±3.07) | 3.20 (±0.25) | 2.62 |  |  |  |  |
| CN1CCN(CCCOc2cc(O)c3c(=O)cc(-c4ccccc4)oc3c2)CC1 [NMC-2, 5-Hydroxy-7-[3-(4-methyl-piperzin-1-yl]-propoxy)-2-phenyl hromen-4-one] |  | 23.33 |  | 16.42 |  | 28.33 (±3.33) | 30.26 (±0.42) mEg | 4.8 (±0.06) | 4.75 (±0.28) | 36.26 (±2.80) m Eg | 1.90 (±0.62) | 28.33 (±0.10) | 4.25 (±0.14) |  | 48.30 | 59.67 | 57.50 | 43.47 |
| CN1CCN(CCCCOc2cc(O)c3c(=O)cc(-c4ccccc4)oc3c2)CC1 [NMC-3, 5-Hydroxy-7-[4-(4-methyl-piperzin-1-yl]-butoxy)-2-phenyl chromen-4-one] |  | 30.00 |  | 17.13 |  | 42.50 (±3.09) | 33.48 (±2.28) mEg | 4.5 (±1.12) | 4.50 (±0.18) | 43.48 (±2.50) m Eg | 1.92 (±0.20) | 33.33 (±2.47) | 3.54 (±0.15) |  | 33.52 | 57.92 | 36.25 | 33.49 |
